Results taken from ChEMBL document CHEMBL4270599, “Synthesis of a 3'-C-ethynyl-β-d-ribofuranose purine nucleoside library: Discovery of C7-deazapurine analogs as potent antiproliferative nucleosides” (Eur J Med Chem, 2018).
The source made the active and inactive calls. No cut-off for these calls is given here.

Key:
Homo sapiens [1] = test: Antitumor activity against human MDA-MB-231-LM2 cells xenografted in SCID mouse assessed as inhibition of lung metastasis at 0.3 mg/kg, it 3 times a week for 2 consecutive weeks starting 10 days post inoculation measured at day 34; assay type: functional, organism-based
Homo sapiens [2] = test: Antitumor activity against human MDA-MB-231-LM2 cells xenografted in SCID mouse assessed as decrease in tumor size at 0.3 mg/kg, it 3 times a week for 2 consecutive weeks starting 10 days post inoculation; assay type: functional, organism-based
[3] = Antitumor activity against human MDA-MB-231-LM2 cells xenografted in SCID mouse assessed as tumor weight at 0.3 mg/kg, it 3 times a week for 2 consecutive weeks starting 10 days post inoculation measured at day 35 (reference value: 551 +/- 74 mg); assay type: functional
SK-OV-3 = test: Growth inhibition of human SKOV3 cells assessed as cell growth at 10^-5 M incubated for 48 hrs by sulforhodamine B assay relative to control; assay type: functional; conditions: SK-OV-3, 48 h, read-out: Activity

SMILES	Activity (Homo sapiens [1])	Activity (Homo sapiens [2])	Activity [3] [mg]	growth at 10 µM (SK-OV-3) [%]
C#C[C@@]1(O)[C@@H](CO)O[C@@H](n2cc(Cl)c3c(N)ncnc32)[C@@H]1O	Active	Active	241	–
C#C[C@@]1(O)[C@@H](CO)O[C@@H](n2ccc3c(N)ncnc32)[C@@H]1O	–	–	–	-20
C#C[C@@]1(O)[C@@H](CO)O[C@@H](n2cc(F)c3c(N)ncnc32)[C@@H]1O	–	–	–	-26
